According to the kinase profiling compilation of Christmann-Franck et al. (2016):

Tests used:
Assay in all cases: radiometric filter-binding kinase assay
[1] = tested on: AKT2 (human), P31751 [S474D]; details: ATP 50 µM
BRSK2 (human) = BRSK2 (human) (UniProt Q8IWQ3); details: ATP 50 µM
CDK2 CCNA2 (human) = CDK2 CCNA2 (human) (UniProt P20248+P24941); details: ATP 20 µM
CHEK2 (human) = CHEK2 (human) (UniProt O96017); details: ATP 20 µM
CSNK2A1 (human) = CSNK2A1 (human) (UniProt P68400); details: ATP 5 µM
CaMK1 (human) = CaMK1 (human) (UniProt Q14012); details: ATP 50 µM
DYRK3 (human) = DYRK3 (human) (UniProt O43781); details: ATP 5 µM
IGF1R (human) = IGF1R (human) (UniProt P08069); details: ATP 5 µM
IKBKB (human) = IKBKB (human) (UniProt O14920); details: ATP 5 µM
MAP2K1 (human) = MAP2K1 (human) (UniProt Q02750); details: ATP 5 µM
MAPK13 (human) = MAPK13 (human) (UniProt O15264); details: ATP 5 µM
MAPK8 (human) = MAPK8 (human) (UniProt P45983); details: ATP 20 µM
MARK3 (human) = MARK3 (human) (UniProt P27448); details: ATP 5 µM
NEK2 (human) = NEK2 (human) (UniProt P51955); details: ATP 50 µM
NEK6 (human) = NEK6 (human) (UniProt Q9HC98); details: ATP 50 µM
PAK4 (human) = PAK4 (human) (UniProt O96013); details: ATP 5 µM
PAK6 (human) = PAK6 (human) (UniProt Q9NQU5); details: ATP 20 µM
PAK7 (human) = PAK7 (human) (UniProt Q9P286); details: ATP 20 µM
PRKACA (human) = PRKACA (human) (UniProt P17612); details: ATP 20 µM
PRKCZ (human) = PRKCZ (human) (UniProt Q05513); details: ATP 5 µM
ROCK2 (rat) = details: ATP 20 µM, accession and sequence are those of the human protein
RPS6KA1 KD1 KD2 (human) = RPS6KA1 KD1 KD2 (human) (UniProt Q15418); details: ATP 100 µM
RPS6KA3 KD1 KD2 (human) = RPS6KA3 KD1 KD2 (human) (UniProt P51812); details: ATP 100 µM
[2] = tested on: SGK1 (human), O00141 [S422D]; details: ATP 20 µM
SRC (human) = SRC (human) (UniProt P12931); details: ATP 50 µM
SRPK1 (human) = SRPK1 (human) (UniProt Q96SB4); details: ATP 50 µM
STK3 (human) = STK3 (human) (UniProt Q13188); details: ATP 20 µM
YES1 (human) = YES1 (human) (UniProt P07947); details: ATP 20 µM

CHEK2 (human), sequence (O96017 whole entry, looked up): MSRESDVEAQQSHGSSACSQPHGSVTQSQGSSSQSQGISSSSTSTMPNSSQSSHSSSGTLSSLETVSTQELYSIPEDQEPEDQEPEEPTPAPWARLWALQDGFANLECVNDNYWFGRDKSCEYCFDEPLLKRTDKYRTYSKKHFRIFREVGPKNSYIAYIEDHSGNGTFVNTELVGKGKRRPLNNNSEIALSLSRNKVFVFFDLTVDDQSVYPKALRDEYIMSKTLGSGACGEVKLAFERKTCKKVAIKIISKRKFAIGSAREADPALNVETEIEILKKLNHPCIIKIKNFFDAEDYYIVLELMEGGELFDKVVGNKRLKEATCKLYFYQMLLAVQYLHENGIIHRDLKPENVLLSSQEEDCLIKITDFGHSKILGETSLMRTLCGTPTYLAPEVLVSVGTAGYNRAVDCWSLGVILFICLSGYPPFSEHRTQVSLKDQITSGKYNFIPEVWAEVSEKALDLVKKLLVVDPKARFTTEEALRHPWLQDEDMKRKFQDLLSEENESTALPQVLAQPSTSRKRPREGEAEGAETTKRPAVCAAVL
SGK1 (human), O00141 [S422D], sequence (O00141 whole entry S422D, looked up): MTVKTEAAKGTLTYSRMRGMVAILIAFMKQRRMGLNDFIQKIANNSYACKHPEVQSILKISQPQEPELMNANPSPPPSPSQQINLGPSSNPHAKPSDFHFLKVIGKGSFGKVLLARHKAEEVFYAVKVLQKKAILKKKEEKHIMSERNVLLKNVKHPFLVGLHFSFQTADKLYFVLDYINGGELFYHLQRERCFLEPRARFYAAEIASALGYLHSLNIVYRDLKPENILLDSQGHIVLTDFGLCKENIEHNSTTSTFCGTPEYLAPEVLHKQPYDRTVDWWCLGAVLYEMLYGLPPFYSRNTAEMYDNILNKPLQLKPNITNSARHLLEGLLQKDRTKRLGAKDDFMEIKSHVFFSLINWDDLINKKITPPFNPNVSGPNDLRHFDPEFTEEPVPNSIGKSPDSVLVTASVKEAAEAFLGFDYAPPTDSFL
IGF1R (human), sequence (P08069 whole entry, looked up): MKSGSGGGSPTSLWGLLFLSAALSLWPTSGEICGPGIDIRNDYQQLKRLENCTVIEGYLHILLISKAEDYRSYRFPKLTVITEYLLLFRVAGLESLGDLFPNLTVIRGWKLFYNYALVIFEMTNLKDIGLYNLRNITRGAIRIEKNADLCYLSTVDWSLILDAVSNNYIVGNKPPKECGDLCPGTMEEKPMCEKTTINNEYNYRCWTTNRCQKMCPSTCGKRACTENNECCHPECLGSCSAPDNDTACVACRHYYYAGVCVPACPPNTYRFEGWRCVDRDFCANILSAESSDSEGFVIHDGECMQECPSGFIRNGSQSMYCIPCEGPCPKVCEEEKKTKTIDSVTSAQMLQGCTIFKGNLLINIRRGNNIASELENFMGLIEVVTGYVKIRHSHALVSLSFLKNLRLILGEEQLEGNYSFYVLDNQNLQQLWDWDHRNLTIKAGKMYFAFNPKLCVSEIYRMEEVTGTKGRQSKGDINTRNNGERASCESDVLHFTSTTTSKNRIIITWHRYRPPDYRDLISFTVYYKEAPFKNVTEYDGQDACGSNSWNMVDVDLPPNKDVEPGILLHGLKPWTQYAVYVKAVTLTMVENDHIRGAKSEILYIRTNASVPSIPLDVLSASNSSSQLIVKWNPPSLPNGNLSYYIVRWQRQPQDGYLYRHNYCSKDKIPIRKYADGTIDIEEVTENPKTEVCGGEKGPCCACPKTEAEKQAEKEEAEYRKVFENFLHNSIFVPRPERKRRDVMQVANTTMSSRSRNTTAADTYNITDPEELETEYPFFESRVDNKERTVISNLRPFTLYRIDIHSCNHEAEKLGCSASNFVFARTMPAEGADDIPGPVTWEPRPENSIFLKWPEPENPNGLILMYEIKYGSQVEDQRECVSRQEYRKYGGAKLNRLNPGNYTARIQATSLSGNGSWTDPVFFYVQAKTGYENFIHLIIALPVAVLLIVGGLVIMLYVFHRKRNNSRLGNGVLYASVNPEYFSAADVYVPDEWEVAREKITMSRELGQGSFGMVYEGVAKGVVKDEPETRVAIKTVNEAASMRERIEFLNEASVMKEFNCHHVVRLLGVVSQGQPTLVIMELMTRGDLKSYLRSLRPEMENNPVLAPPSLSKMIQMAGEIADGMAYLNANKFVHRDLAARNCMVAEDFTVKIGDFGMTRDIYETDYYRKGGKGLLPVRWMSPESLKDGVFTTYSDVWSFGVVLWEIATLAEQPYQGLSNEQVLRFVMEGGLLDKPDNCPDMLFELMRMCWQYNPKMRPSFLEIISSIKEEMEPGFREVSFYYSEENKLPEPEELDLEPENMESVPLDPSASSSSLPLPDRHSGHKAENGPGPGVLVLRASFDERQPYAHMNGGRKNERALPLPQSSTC
STK3 (human), sequence (Q13188 whole entry, looked up): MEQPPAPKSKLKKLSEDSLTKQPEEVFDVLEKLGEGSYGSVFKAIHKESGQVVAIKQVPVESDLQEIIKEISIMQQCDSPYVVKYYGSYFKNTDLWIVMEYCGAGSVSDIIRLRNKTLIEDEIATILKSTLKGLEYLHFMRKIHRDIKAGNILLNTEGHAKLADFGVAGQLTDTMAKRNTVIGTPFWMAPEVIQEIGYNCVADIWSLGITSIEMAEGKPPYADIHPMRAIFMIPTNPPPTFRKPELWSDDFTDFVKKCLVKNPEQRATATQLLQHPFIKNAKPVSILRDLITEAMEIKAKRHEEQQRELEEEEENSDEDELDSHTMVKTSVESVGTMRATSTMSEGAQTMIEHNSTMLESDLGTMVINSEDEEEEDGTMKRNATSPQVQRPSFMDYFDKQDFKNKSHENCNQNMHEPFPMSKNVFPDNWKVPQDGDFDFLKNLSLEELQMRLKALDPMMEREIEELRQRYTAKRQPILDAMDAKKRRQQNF
CaMK1 (human), sequence (Q14012 whole entry, looked up): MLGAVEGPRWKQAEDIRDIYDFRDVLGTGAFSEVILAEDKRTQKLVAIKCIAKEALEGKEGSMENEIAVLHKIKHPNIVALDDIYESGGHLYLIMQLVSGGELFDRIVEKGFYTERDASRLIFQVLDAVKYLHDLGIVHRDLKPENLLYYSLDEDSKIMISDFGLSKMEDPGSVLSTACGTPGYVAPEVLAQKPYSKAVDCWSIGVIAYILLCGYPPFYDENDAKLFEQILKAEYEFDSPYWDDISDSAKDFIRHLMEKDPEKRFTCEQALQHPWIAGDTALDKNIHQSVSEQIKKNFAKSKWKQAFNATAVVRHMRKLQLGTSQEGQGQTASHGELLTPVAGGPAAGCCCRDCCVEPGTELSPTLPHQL
PRKCZ (human), sequence (Q05513 whole entry, looked up): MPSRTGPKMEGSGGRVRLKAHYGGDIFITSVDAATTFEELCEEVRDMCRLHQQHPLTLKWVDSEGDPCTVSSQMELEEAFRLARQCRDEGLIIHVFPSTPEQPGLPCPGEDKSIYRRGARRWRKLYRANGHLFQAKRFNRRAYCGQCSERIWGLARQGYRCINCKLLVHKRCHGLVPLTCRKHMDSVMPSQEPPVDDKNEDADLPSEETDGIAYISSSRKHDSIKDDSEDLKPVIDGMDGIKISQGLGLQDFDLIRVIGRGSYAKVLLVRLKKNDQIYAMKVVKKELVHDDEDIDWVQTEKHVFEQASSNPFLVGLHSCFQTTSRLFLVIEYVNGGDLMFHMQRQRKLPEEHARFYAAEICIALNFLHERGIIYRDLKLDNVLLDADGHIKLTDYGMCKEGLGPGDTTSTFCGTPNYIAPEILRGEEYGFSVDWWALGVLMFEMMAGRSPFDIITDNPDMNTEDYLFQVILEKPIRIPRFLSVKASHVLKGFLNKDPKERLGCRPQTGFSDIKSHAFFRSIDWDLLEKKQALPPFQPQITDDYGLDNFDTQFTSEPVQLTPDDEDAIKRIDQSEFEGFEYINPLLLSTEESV
MAPK13 (human), sequence (O15264 whole entry, looked up): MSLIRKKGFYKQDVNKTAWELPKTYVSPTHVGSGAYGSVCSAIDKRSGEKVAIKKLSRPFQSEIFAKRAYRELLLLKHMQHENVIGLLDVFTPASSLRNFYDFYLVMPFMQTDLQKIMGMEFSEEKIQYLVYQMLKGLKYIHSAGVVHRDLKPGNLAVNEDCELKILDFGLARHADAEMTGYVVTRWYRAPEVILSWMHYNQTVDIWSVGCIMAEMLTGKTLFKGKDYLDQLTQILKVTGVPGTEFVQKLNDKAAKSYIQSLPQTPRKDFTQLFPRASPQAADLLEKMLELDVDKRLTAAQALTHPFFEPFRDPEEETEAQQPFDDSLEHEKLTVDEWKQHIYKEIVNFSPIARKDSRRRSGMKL
PAK6 (human), sequence (Q9NQU5 whole entry, looked up): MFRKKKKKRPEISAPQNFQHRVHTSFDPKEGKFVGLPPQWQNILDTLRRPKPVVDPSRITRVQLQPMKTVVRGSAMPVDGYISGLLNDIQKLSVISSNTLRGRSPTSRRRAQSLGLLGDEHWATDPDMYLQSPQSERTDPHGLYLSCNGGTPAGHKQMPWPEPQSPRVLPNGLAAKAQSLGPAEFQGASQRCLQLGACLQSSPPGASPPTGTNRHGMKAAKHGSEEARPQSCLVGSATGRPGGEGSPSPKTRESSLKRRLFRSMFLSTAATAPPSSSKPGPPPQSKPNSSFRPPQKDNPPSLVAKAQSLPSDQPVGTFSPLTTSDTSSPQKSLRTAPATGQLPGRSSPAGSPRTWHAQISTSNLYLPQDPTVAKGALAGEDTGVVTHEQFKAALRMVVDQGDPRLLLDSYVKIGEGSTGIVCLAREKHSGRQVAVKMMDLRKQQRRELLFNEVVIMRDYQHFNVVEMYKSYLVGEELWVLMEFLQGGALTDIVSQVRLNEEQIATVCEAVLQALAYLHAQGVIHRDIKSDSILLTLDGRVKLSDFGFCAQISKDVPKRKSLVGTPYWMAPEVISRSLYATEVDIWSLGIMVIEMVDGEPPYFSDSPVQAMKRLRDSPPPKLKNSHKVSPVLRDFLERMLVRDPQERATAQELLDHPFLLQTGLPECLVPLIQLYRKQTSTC

CCc1cncnc1N1CCN(Cc2nc3cc(C(F)(F)F)ccc3[nH]2)CC1
residual activity ([1]; compound 0.1 µM): 74%
residual activity ([1]; compound 1.0 µM): 73%
residual activity ([1]; compound 10.0 µM): 60%
residual activity (BRSK2 (human); compound 0.1 µM): 88%
residual activity (BRSK2 (human); compound 1.0 µM): 84%
residual activity (BRSK2 (human); compound 10.0 µM): 83%
residual activity (CDK2 CCNA2 (human); compound 0.1 µM): 102%
residual activity (CDK2 CCNA2 (human); compound 1.0 µM): 101%
residual activity (CDK2 CCNA2 (human); compound 10.0 µM): 88%
residual activity (CHEK2 (human); compound 0.1 µM): 101%
residual activity (CHEK2 (human); compound 1.0 µM): 73%
residual activity (CHEK2 (human); compound 10.0 µM): 72%
residual activity (CSNK2A1 (human); compound 0.1 µM): 96%
residual activity (CSNK2A1 (human); compound 1.0 µM): 92%
residual activity (CSNK2A1 (human); compound 10.0 µM): 83%
residual activity (CaMK1 (human); compound 0.1 µM): 106%
residual activity (CaMK1 (human); compound 1.0 µM): 94%
residual activity (CaMK1 (human); compound 10.0 µM): 78%
residual activity (DYRK3 (human); compound 0.1 µM): 106%
residual activity (DYRK3 (human); compound 1.0 µM): 92%
residual activity (DYRK3 (human); compound 10.0 µM): 83%
residual activity (IGF1R (human); compound 0.1 µM): 72%
residual activity (IGF1R (human); compound 1.0 µM): 95%
residual activity (IGF1R (human); compound 10.0 µM): 82%
residual activity (IKBKB (human); compound 0.1 µM): 195%
residual activity (IKBKB (human); compound 1.0 µM): 230%
residual activity (IKBKB (human); compound 10.0 µM): 192%
residual activity (MAP2K1 (human); compound 0.1 µM): 117%
residual activity (MAP2K1 (human); compound 1.0 µM): 104%
residual activity (MAP2K1 (human); compound 10.0 µM): 96%
residual activity (MAPK13 (human); compound 0.1 µM): 89%
residual activity (MAPK13 (human); compound 1.0 µM): 82%
residual activity (MAPK13 (human); compound 10.0 µM): 91%
residual activity (MAPK8 (human); compound 0.1 µM): 111%
residual activity (MAPK8 (human); compound 1.0 µM): 107%
residual activity (MAPK8 (human); compound 10.0 µM): 95%
residual activity (MARK3 (human); compound 0.1 µM): 94%
residual activity (MARK3 (human); compound 1.0 µM): 83%
residual activity (MARK3 (human); compound 10.0 µM): 82%
residual activity (NEK2 (human); compound 0.1 µM): 95%
residual activity (NEK2 (human); compound 1.0 µM): 94%
residual activity (NEK2 (human); compound 10.0 µM): 91%
residual activity (NEK6 (human); compound 0.1 µM): 88%
residual activity (NEK6 (human); compound 1.0 µM): 75%
residual activity (NEK6 (human); compound 10.0 µM): 80%
residual activity (PAK4 (human); compound 0.1 µM): 93%
residual activity (PAK4 (human); compound 1.0 µM): 88%
residual activity (PAK4 (human); compound 10.0 µM): 88%
residual activity (PAK6 (human); compound 0.1 µM): 99%
residual activity (PAK6 (human); compound 1.0 µM): 83%
residual activity (PAK6 (human); compound 10.0 µM): 86%
residual activity (PAK7 (human); compound 0.1 µM): 100%
residual activity (PAK7 (human); compound 1.0 µM): 88%
residual activity (PAK7 (human); compound 10.0 µM): 87%
residual activity (PRKACA (human); compound 0.1 µM): 84%
residual activity (PRKACA (human); compound 1.0 µM): 83%
residual activity (PRKACA (human); compound 10.0 µM): 34%
residual activity (PRKCZ (human); compound 0.1 µM): 78%
residual activity (PRKCZ (human); compound 1.0 µM): 75%
residual activity (PRKCZ (human); compound 10.0 µM): 70%
residual activity (ROCK2 (rat); compound 0.1 µM): 98%
residual activity (ROCK2 (rat); compound 1.0 µM): 91%
residual activity (ROCK2 (rat); compound 10.0 µM): 58%
IC50 (RPS6KA1 KD1 KD2 (human)): 4.7 µM
residual activity (RPS6KA1 KD1 KD2 (human); compound 0.1 µM): 85%
residual activity (RPS6KA1 KD1 KD2 (human); compound 1.0 µM): 83%
residual activity (RPS6KA1 KD1 KD2 (human); compound 10.0 µM): 33%
IC50 (RPS6KA3 KD1 KD2 (human)): 9.2 µM
residual activity (RPS6KA3 KD1 KD2 (human); compound 0.1 µM): 100%
residual activity (RPS6KA3 KD1 KD2 (human); compound 1.0 µM): 86%
residual activity (RPS6KA3 KD1 KD2 (human); compound 10.0 µM): 45%
residual activity ([2]; compound 0.1 µM): 106%
residual activity ([2]; compound 1.0 µM): 74%
residual activity ([2]; compound 10.0 µM): 65%
residual activity (SRC (human); compound 0.1 µM): 103%
residual activity (SRC (human); compound 1.0 µM): 99%
residual activity (SRC (human); compound 10.0 µM): 92%
residual activity (SRPK1 (human); compound 0.1 µM): 108%
residual activity (SRPK1 (human); compound 1.0 µM): 106%
residual activity (SRPK1 (human); compound 10.0 µM): 101%
residual activity (STK3 (human); compound 0.1 µM): 95%
residual activity (STK3 (human); compound 1.0 µM): 85%
residual activity (STK3 (human); compound 10.0 µM): 77%
residual activity (YES1 (human); compound 0.1 µM): 98%
residual activity (YES1 (human); compound 1.0 µM): 84%
residual activity (YES1 (human); compound 10.0 µM): 76%
